Experimental data from patent US7399746B2, “Agents for wound healing” (McGill University, priority 2004, dated 2008).

How the values were obtained:
[1] = tested on: LLC-PK1 cells, a porcine kidney epithelial cell line; assay: in vitro wound healing, monolayer of kidney epithelial cells; format: cell-based; details: FIG. 1A
Protocol: Wound healing was measured using an art-established monolayer cell culture method (Nwomeh, et al. (1998) supra). Cells to be studied were plated in 48-well tissue culture plates at a cell density appropriate for obtaining confluent monolayers after one day in culture. Circular wounds were made in the center of the wells by placing a siliconized 200 μL tip into the well and lifting the cells from the plastic by applying suction. The successful creation of wounds was analysed using a phase contrast microscope. Cells were subsequently treated with control media or media containing the factors to be tested. The size of the wounds was immediately recorded for each well. […] After one or two days in culture (depending on the cells studied), the size of the wounds was measured again. Wound dimensions were evaluated with a Leica MZFL11 stereo microscope. Computer images of the wounds were recorded with imaging software and contours of each wound before and after treatment were traced manually. Collections of contours for all wounds were converted to BMP files and quantitated using the Band-Leader program. The results were expressed as % reduction of wounds taking as 100% the reduction obtained in control cell cultures. […] In these experiments, wound closure was being analysed, independent of the mechanism involved. […]

[2] = tested on: primary human skin fibroblasts; assay: in vitro wound healing, monolayer of skin fibroblasts; format: cell-based; details: FIG. 1B; for wound reduction: serum-free medium, two days
Protocol: (§1) Wound healing was measured using an art-established monolayer cell culture method (Nwomeh, et al. (1998) supra). Cells to be studied were plated in 48-well tissue culture plates at a cell density appropriate for obtaining confluent monolayers after one day in culture. Circular wounds were made in the center of the wells by placing a siliconized 200 μL tip into the well and lifting the cells from the plastic by applying suction. The successful creation of wounds was analysed using a phase contrast microscope. Cells were subsequently treated with control media or media containing the factors to be tested. The size of the wounds was immediately recorded for each well. The wounds were large enough to allow for a long-term incubation thereby improving the accuracy of the determinations. After one or two days in culture (depending on the cells studied), the size of the wounds was measured again. Wound dimensions were evaluated with a Leica MZFL11 stereo microscope. Computer images of the wounds were recorded with imaging software and contours of each wound before and after treatment were traced manually. Collections of contours for all wounds were converted to BMP files and quantitated using the Band-Leader program. The results were expressed as % reduction of wounds taking as 100% the reduction obtained in control cell cultures. No change corresponded to 0%, whereas complete closure corresponded to 100%. This system works well with close monitoring of cell densities. To prevent excess cell growth, the incubations were performed in serum-free medium supplemented with a single protein, transferrin (5 μg/mL). The absence of serum slowed down the healing process (one day in LLC-PK1 cells, two days in all other cultures), but reflected more accurately the situation likely to prevail in topical applications in vivo. Wound closure depends on the migration of cells at the sites of the wound and on cell proliferation. In these experiments, wound closure was being analysed, independent of the mechanism involved.
Cells analysed in the in vitro assay disclosed herein included monolayers of LLC-PK1 cells, a porcine kidney epithelial cell line used as an experimental system of wound healing for acute renal failure (Sponsel, et al. (1994) supra); monolayers of primary human skin fibroblasts; and monolayers of human skin keratinocytes. […] This made measurements of keratinocyte wound closure particularly difficult and time consuming. According, wound closure measurements of a cross created with two perpendicular cell lesions was particularly effective for analysing human skin keratinocytes (Sponsel, et al. (1994) supra).

human skin keratinocytes [3] = assay: in vitro wound healing, monolayer of skin keratinocytes; format: cell-based; details: FIG. 1C
Protocol: as §1, with “The absence of serum slowed down the healing process (one day in LLC-PK1 cells, two days in all other cultures), but reflected more accurately the situation likely to prevail in topical applications in vivo. Wound closure depends on the migration of cells at the sites of the wound and on cell proliferation.” left out
Cells analysed in the in vitro assay disclosed herein included monolayers of LLC-PK1 cells, a porcine kidney epithelial cell line used as an experimental system of wound healing for acute renal failure (Sponsel, et al. (1994) supra); monolayers of primary human skin fibroblasts; and monolayers of human skin keratinocytes. […]

kidney epithelial cells = assay: cell proliferation, Alamar blue, kidney epithelial cells; format: cell-based, porcine; details: two days, FIG. 2A
Protocol: (§2) The effects of IGF-API, API and C26 on cell proliferation were also evaluated using the art-established Alamar blue technique developed for hematopoietic cells or endothelial cells (DiFalco, et al. (1997) Biochem. J. 326:407-13; DiFalco & Congote (2002) Cytokine 18 (1):51-60; Sandoval, et al. (2002) supra). Five thousand cells per well were plated in 96-well plates and grown over night in complete cell culture medium. The cells were subsequently starved for one day in serum-free medium supplemented with 5 μg/mL bovine transferrin and 200 μg/mL fatty-acid free, tissue culture-tested, bovine serum albumin and incubated for two days in the presence of the API derivatives indicated. For experiments with the hepatoma cell line, Hep G2, only 3000 cells were plated per well.

[4] = tested on: human skin fibroblast cultures; assay: cell proliferation, Alamar blue, skin fibroblasts; format: cell-based; details: two days, FIG. 2B
Protocol: as §2

human skin keratinocytes [5] = assay: cell proliferation, Alamar blue, keratinocytes; format: cell-based
Protocol: as §2
(§3) Cell proliferation with EGF and C26 was also analysed for keratinocytes and Hep G2 cells. The number of experiments using keratinocytes with EGF was five, and 10 to 11 with C26. The number of experiments using Hep G2 with EGF and C26 was five, except for 20 nM EGF (n=8, P<0.05, paired t-test) and for 20 μM C26 (n=21, p<0.001, paired t-test and Student-Newman-Keuls test). All other P values were according to the Student-Newman-Keul multiple comparisons test.

[6] = tested on: hepatoma cell line Hep G2; assay: cell proliferation, Alamar blue, Hep G2; format: cell-based; details: Hep G2, 20 μM, FIG. 3B (n=21, p<0.001 for C26)
Protocol: as §2, §3

Row | Substance | concentration at which effective/active in wound reduction [1] | concentration with significant effect on wound reduction [2] | wound reduction [2] | concentration with effect on wound reduction (human skin keratinocytes [3]) | wound reduction (human skin keratinocytes [3]) | cell proliferation (kidney epithelial cells) | cell proliferation [4] | cell proliferation compared to EGF (human skin keratinocytes [5]; equivalent concentrations of EGF, FIG. 3A) | cell proliferation (human skin keratinocytes [5]; two days, FIG. 2C) | cell proliferation [6]
1 | API: alpha-1 proteinase inhibitor, also known as alpha-1-antitrypsin, the major physiological inhibitor of neutrophil elastase | 0.16 nM | 0.02 µM | significant, but lower than the effects obtained with IGF-API | 8 nM | marginal, but significant effect |  |  |  |  | 
2 | C26: small peptide corresponding to the last 26 amino acids of API (SEQ ID NO:2) (PFVFLMIEQNTKSPLFMGKVVNPTQK) | 32 nM | 8 µM | significant, but lower than the effects obtained with IGF-API |  | no significant effect | marginally stimulated cell proliferation | marginally stimulated cell proliferation | higher than the effects of equivalent concentrations of epidermal growth factor | marginally stimulated cell proliferation | significantly increased cell proliferation
